pIC50: −log10 of the molar value. Where two headings read alike, the source gives them in different places.
Legend:
EGFR L858R/C797S = EGFR L858R/C797S (Homo sapiens, UniProt P00533, C797S/L858R); assay: Biochemical EGFR kinase assay (Lance Ultra TR-FRET), double mutant L858R/C797S
How it was run: (§1)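 Enzyme reactions lasted 1 hour at room temperature with test compounds between 0.003 and 10 μM, followed by 10 mM EDTA quench.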

EGFR L858R/T790M/C797S = EGFR L858R/T790M/C797S (Homo sapiens, UniProt P00533, C797S/L858R/T790M); assay: Biochemical EGFR kinase assay (Lance Ultra TR-FRET), triple mutant L858R/T790M/C797S
How it was run: as §1

EGFR del19/T790M/C797S = EGFR del19/T790M/C797S (Homo sapiens, UniProt P00533, C797S/DEL746-750/T790M); assay: Biochemical EGFR kinase assay (Lance Ultra TR-FRET), triple mutant del19/T790M/C797S
How it was run: as §1

EGFR wildtype = EGFR wildtype (Homo sapiens, UniProt P00533); assay: Biochemical EGFR kinase assay (Lance Ultra TR-FRET), wildtype
How it was run: as §1

EGFR del19/C797S = EGFR del19/C797S (Homo sapiens, UniProt P00533, C797S/DEL746-750); assay: Biochemical EGFR kinase assay (Lance Ultra TR-FRET), double mutant del19/C797S
How it was run: as §1

[1] = IC50 L858R/C797S (nM) 100 μM ATP, 100 μM ATP
[2] = Km ATP, read-out: IC50 L858R/C797S (nM) Km ATP
[3] = IC50 L858R/T790M/C797S (nM) 100 μM ATP, 100 μM ATP
[4] = Km ATP, read-out: IC50 L858R/T790M/C797S (nM) Km ATP
[5] = IC50 del19/T790M/C797S (nM) 100 μM ATP, 100 μM ATP
[6] = Km ATP, read-out: IC50 del19/T790M/C797S (nM) Km ATP
[7] = IC50 WT (nM) 100 μM ATP, 100 μM ATP
[8] = Km ATP, read-out: IC50 WT (nM) Km ATP
[9] = Km ATP, read-out: IC50 del19/C797S (nM) Km ATP
[10] = IC50 del19/C797S (nM) 100 μM ATP, 100 μM ATP
[11] = ATP at Km, read-out: IC50 L858R/C797S, Km ATP
[12] = ATP at Km, read-out: IC50 L858R/T790M/C797S, Km ATP
[13] = IC50 L858R/T790M/C797S, 100 μM ATP
[14] = ATP at Km, read-out: IC50 del19/T790M/C797S, Km ATP
[15] = IC50 del19/T790M/C797S, 100 μM ATP
[16] = ATP at Km, read-out: IC50 WT, Km ATP
[17] = ATP at Km, read-out: IC50 del19/C797S, Km ATP

Chain of EGFR del19/C797S (P00533 with tags, fused parts or gaps DEL746-750/C797S): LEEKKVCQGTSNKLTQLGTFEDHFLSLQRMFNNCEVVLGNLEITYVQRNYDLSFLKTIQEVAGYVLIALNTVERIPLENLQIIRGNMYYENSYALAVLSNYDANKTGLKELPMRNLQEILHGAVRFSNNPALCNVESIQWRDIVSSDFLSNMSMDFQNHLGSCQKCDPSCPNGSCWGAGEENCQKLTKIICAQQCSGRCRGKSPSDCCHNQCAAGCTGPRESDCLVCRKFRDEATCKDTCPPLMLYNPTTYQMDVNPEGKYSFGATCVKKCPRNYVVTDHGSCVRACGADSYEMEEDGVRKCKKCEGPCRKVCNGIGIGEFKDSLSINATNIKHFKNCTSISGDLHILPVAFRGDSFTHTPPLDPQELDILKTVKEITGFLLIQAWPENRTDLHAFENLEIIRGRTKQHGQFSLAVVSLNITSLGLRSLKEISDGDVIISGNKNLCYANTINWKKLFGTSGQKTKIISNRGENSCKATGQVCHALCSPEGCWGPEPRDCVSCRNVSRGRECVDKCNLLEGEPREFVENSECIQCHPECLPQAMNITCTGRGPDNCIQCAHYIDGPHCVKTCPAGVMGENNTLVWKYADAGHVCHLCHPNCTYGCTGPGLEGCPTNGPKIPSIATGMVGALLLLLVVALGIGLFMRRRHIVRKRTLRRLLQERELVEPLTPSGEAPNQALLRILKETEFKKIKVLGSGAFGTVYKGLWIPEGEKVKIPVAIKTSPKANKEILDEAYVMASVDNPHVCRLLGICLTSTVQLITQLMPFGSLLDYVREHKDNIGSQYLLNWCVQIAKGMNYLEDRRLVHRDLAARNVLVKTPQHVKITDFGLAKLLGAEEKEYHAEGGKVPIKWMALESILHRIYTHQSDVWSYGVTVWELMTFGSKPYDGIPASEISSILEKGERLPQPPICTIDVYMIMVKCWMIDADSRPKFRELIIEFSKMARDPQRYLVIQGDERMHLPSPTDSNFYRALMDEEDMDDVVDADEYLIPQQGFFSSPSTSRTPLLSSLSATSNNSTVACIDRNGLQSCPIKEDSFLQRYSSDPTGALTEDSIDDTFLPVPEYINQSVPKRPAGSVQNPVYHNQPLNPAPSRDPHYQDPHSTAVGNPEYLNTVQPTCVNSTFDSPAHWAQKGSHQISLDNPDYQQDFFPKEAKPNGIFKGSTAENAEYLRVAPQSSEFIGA
Chain of EGFR L858R/T790M/C797S (P00533 25-1210 T790M/C797S/L858R): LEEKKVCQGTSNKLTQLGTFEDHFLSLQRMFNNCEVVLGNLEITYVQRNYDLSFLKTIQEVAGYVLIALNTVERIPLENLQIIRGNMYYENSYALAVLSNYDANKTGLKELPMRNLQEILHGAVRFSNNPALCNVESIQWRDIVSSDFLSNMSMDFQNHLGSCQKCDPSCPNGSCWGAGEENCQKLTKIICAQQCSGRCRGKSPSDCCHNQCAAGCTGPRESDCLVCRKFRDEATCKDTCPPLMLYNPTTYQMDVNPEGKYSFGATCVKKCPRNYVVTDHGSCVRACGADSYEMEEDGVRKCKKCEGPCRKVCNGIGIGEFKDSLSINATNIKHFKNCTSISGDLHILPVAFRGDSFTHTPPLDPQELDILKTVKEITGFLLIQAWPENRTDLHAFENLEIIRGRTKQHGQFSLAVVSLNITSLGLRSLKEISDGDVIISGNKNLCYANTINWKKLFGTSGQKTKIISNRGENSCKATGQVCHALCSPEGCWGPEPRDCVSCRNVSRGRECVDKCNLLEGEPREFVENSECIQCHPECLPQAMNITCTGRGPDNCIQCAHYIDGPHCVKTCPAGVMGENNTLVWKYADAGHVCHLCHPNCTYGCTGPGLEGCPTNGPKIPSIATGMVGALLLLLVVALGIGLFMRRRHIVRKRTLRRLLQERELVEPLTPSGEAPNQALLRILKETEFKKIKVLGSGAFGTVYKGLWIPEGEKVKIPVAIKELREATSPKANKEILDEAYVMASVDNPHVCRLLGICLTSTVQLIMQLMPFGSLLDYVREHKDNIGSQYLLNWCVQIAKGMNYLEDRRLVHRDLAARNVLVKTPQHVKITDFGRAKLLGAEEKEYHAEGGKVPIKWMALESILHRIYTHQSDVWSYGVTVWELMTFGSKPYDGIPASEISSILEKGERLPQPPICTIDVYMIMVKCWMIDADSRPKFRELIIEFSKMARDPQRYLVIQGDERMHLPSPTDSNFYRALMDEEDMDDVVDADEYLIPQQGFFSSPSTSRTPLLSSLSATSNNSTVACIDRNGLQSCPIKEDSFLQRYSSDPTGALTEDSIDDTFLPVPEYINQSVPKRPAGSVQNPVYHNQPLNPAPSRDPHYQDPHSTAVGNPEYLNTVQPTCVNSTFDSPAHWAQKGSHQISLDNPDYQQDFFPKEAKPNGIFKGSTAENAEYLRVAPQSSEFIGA
Chain of EGFR wildtype (P00533 25-1210): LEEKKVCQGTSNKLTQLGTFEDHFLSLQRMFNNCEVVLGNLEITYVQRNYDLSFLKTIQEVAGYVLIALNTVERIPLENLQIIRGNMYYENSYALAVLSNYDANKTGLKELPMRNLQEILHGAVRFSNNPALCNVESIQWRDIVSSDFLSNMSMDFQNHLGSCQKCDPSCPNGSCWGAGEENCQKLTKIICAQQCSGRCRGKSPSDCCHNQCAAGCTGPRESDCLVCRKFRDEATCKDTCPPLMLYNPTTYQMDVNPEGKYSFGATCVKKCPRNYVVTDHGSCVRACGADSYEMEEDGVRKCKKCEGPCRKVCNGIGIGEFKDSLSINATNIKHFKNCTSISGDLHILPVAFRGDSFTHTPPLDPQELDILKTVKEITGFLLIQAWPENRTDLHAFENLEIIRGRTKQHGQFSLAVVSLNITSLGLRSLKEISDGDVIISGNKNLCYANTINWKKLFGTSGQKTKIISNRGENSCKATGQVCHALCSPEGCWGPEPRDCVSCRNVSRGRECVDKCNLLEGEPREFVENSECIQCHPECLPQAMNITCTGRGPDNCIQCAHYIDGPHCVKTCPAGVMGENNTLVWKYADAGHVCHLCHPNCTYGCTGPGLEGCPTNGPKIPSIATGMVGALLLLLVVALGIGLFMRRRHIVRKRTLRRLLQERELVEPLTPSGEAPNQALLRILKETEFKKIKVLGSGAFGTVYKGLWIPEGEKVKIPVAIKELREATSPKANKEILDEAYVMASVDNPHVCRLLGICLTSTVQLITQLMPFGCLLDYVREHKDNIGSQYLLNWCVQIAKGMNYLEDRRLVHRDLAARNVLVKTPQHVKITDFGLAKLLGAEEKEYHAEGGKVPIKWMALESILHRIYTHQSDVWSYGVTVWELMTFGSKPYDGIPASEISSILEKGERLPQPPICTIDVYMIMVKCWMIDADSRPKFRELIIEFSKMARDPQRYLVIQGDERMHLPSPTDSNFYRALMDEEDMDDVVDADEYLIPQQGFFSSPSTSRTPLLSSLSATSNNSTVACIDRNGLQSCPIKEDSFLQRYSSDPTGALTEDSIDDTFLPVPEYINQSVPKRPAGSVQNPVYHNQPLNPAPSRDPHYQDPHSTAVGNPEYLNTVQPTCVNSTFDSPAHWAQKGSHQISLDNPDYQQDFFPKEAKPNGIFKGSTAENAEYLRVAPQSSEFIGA
Chain of EGFR del19/T790M/C797S (P00533 with tags, fused parts or gaps DEL746-750/T790M/C797S): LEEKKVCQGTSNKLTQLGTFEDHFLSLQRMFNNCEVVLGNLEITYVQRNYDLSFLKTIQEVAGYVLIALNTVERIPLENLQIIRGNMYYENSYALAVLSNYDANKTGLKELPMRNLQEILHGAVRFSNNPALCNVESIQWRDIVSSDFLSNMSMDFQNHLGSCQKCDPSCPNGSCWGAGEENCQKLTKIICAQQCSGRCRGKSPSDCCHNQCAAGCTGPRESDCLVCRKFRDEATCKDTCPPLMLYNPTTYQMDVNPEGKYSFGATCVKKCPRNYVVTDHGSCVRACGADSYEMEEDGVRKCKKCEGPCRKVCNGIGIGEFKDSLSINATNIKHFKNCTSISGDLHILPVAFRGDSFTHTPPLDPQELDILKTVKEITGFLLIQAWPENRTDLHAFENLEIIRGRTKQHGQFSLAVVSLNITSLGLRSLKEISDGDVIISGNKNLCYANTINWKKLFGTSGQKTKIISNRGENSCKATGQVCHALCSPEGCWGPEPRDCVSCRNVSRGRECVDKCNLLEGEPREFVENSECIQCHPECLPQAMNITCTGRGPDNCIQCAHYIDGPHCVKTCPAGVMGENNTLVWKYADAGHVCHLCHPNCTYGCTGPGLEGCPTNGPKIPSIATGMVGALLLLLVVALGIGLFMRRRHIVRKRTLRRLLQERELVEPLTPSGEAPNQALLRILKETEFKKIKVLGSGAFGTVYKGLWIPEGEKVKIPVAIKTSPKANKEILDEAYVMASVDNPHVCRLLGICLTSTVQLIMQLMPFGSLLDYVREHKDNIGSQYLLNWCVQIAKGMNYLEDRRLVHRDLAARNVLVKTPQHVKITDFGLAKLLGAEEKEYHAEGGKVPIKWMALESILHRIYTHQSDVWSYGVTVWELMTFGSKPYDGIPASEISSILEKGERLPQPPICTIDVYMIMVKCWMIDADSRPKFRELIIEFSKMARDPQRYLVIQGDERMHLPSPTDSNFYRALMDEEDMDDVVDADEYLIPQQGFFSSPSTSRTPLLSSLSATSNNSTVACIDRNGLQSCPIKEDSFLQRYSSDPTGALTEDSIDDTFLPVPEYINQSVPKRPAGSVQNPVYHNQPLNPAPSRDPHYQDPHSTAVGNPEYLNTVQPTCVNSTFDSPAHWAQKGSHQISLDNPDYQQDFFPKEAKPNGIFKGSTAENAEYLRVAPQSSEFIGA

Row | Compound | IC50 (EGFR L858R/C797S; [1]) | IC50 (EGFR L858R/C797S; [2]) | IC50 (EGFR L858R/T790M/C797S; [3]) | IC50 (EGFR L858R/T790M/C797S; [4]) | IC50 (EGFR del19/T790M/C797S; [5]) | IC50 (EGFR del19/T790M/C797S; [6]) | IC50 (EGFR wildtype; [7]) | IC50 (EGFR wildtype; [8]) | IC50 (EGFR del19/C797S; [9]) | IC50 (EGFR del19/C797S; [10]) | pIC50 (EGFR L858R/C797S; [11]) | pIC50 (EGFR L858R/C797S; IC50 L858R/C797S, 100 μM ATP) | pIC50 (EGFR L858R/T790M/C797S; [12]) | pIC50 (EGFR L858R/T790M/C797S; [13]) | pIC50 (EGFR del19/T790M/C797S; [14]) | pIC50 (EGFR del19/T790M/C797S; [15]) | pIC50 (EGFR wildtype; [16]) | pIC50 (EGFR wildtype; IC50 WT, 100 μM ATP) | pIC50 (EGFR del19/C797S; IC50 del19/C797S, 100 μM ATP) | pIC50 (EGFR del19/C797S; [17])
1 | C[C@]1(O)CC[C@@H](Nc2cc(Nc3ccnc(-c4cnn(S(=O)(=O)C5CC5)c4)n3)ncc2-c2ccc(C#N)cn2)CC1 [Example 7, 6′-((2-(1-(Cyclopropylsulfonyl)-1H-pyrazol-4-yl)pyrimidin-4-yl)amino)-4′-(((1s,4s)-4-hydroxy-4-methylcyclohexyl)amino)-[2,3′-bipyridine]-5-carbonitrile] | 12.4 nM | 0.6 nM | 0.2 nM | 0.1 nM | 0.2 nM | 0.4 nM | > 10000 nM | 3 nM | 0.5 nM |  |  |  |  |  |  |  |  |  |  | 
2 | C[C@]1(O)CC[C@@H](Nc2cc(Nc3ccnc(-c4cnn(S(=O)(=O)C5CC5)c4)n3)ncc2-c2ccc(N3CCC(F)(F)CC3)cn2)CC1 [Example 47, (1s,4s)-4-((6′-((2-(1-(Cyclopropylsulfonyl)-1H-pyrazol-4-yl)pyrimidin-4-yl)amino)-5-(4,4-difluoropiperidin-1-yl)-[2,3′-bipyridin]-4′-yl)amino)-1-methylcyclohexan-1-ol] | 17.7 nM | 7.9 nM | 3 nM | 1 nM |  | 2 nM | > 10000 nM | 7.1 nM | 3.2 nM | 4.2 nM |  |  |  |  |  |  |  |  |  | 
3 | CC(C)(O)[C@H]1CC[C@@H](Nc2cc(Nc3ccnc(-c4cnn(S(=O)(=O)C5CC5)c4)n3)ncc2-c2cc(C(F)F)ccn2)CC1 [Example 78, 2-((1s,4s)-4-((6′-((2-(1-(Cyclopropylsulfonyl)-1H-pyrazol-4-yl)pyrimidin-4-yl)amino)-4-(difluoromethyl)-[2,3′-bipyridin]-4′-yl)amino)cyclohexyl)propan-2-ol] | 85.5 nM | 16.6 nM | 5.4 nM |  | 5.5 nM | 6.8 nM | > 10000 nM | 23.6 nM | 8.8 nM | 15.8 nM |  |  |  |  |  |  |  |  |  | 
4 | CC(C)(O)[C@H]1CC[C@@H](Nc2cc(Nc3ccnc(-c4cnn(S(=O)(=O)C5CC5)c4)n3)ncc2-c2ccc(N3CCC(F)(F)CC3)nn2)CC1 [Example 71, 2-((1s,4s)-4-((2-((2-(1-(Cyclopropylsulfonyl)-1H-pyrazol-4-yl)pyrimidin-4-yl)amino)-5-(6-(4,4-difluoropiperidin-1-yl)pyridazin-3-yl)pyridin-4-yl)amino)cyclohexyl)propan-2-ol] | 355 nM |  | 4.1 nM |  | 4.5 nM |  | > 10000 nM |  |  | 44.2 nM |  |  |  |  |  |  |  |  |  | 
5 | CC1(O)CCC(Nc2cc(Nc3ccnc(-c4cnn(S(=O)(=O)C5CC5)c4)n3)ncc2-c2ccc(C(O)C(F)(F)F)cn2)CC1 (stereo not drawn) [Example 226, (1s,4s)-4-((6′-((2-(1-(Cyclopropylsulfonyl)-1H-pyrazol-4-yl)pyrimidin-4-yl)amino)-5-(2,2,2-trifluoro-1-hydroxyethyl)-[2,3′-bipyridin]-4′-yl)amino)-1-methylcyclohexan-1-ol] |  |  |  |  |  |  |  |  |  |  | 8.70 | 8.08 | 9.52 | 9.30 | 9.10 | 9.10 | 8.31 | 5.29 | 8.33 | 
6 | C[C@]1(O)CC[C@@H](Nc2cc(Nc3ccnc(-c4cnn(S(=O)(=O)C5CC5)c4)n3)ncc2-c2cccc(CN3CCOCC3)n2)CC1 [Example 29, (1s,4s)-4-((6′-((2-(1-(Cyclopropylsulfonyl)-1H-pyrazol-4-yl)pyrimidin-4-yl)amino)-6-(morpholinomethyl)-[2,3′-bipyridin]-4′-yl)amino)-1-methylcyclohexan-1-ol] | 26.2 nM |  | 0.4 nM |  | 0.2 nM |  | > 10000 nM |  |  | 1.8 nM |  |  |  |  |  |  |  |  |  | 
7 | CN(C)S(=O)(=O)n1cc(-c2nccc(Nc3cc(NC4CCC(C)(O)CC4)c(-c4ccc(C(O)C(F)(F)F)cn4)cn3)n2)cn1 (stereo not drawn) [Example 297, 4-(4-((4′-(((1s,4s)-4-Hydroxy-4-methylcyclohexyl)amino)-5-(2,2,2-trifluoro-1-hydroxyethyl)-[2,3′-bipyridin]-6′-yl)amino)pyrimidin-2-yl)-N,N-dimethyl-1H-pyrazole-1-sulfonamide] |  |  |  |  |  |  |  |  |  |  | 8.52 |  | 8.85 |  | 8.80 |  | 7.40 |  |  | 8.40
8 | CN(C)C[C@H]1CC[C@@H](Nc2cc(Nc3ccnc(-c4cnn(S(=O)(=O)C5CC5)c4)n3)ncc2-c2cc(C(C)(C)O)c(F)cn2)CC1 [Example 107, 2-(6′-((2-(1-(Cyclopropylsulfonyl)-1H-pyrazol-4-yl)pyrimidin-4-yl)amino)-4′-(((1s,4s)-4-((dimethylamino)methyl)cyclohexyl)amino)-5-fluoro-[2,3′-bipyridin]-4-yl)propan-2-ol] | 1.8 nM | 0.1 nM | 0.2 nM | 0.2 nM | 0.4 nM | 0.3 nM | 327 nM | 0.4 nM | 0.1 nM | 0.5 nM |  |  |  |  |  |  |  |  |  | 
9 | C[C@]1(O)CC[C@@H](Nc2cc(Nc3ccnc(-c4cnn(S(=O)(=O)C5CC5)c4)n3)ncc2-c2cc(NCCN3CC(F)C3)ccn2)CC1 [Example 281, (1s,4s)-4-((6′-((2-(1-(Cyclopropylsulfonyl)-1H-pyrazol-4-yl)pyrimidin-4-yl)amino)-4-((2-(3-fluoroazetidin-1-yl)ethyl)amino)-[2,3′-bipyridin]-4′-yl)amino)-1-methylcyclohexan-1-ol] |  |  |  |  |  |  |  |  |  |  |  | 8.68 |  | 9.70 |  | 9.70 |  | 5.20 | 9.22 | 
10 | C[C@]1(O)CC[C@@H](Nc2cc(Nc3ccnc(-c4cnn(S(=O)(=O)C5CC5)c4)n3)ncc2-c2cccc(CO)n2)CC1 [Example 27, (1s,4s)-4-((6′-((2-(1-(Cyclopropylsulfonyl)-1H-pyrazol-4-yl)pyrimidin-4-yl)amino)-6-(hydroxymethyl)-[2,3′-bipyridin]-4′-yl)amino)-1-methylcyclohexan-1-ol] | 1.6 nM | 0.1 nM | 0.4 nM | 0.2 nM | 0.3 nM | 0.3 nM | 370 nM | 1.7 nM | 0.1 nM | 0.3 nM |  |  |  |  |  |  |  |  |  | 
11 | CC1(O)CCC(Nc2cc(Nc3ccnc(-c4cnn(S(=O)(=O)C5CC5)c4)n3)ncc2-c2cc(CN3CC(O)C3)ccn2)CC1 (stereo not drawn) [Example 288, 1-((6′-((2-(1-(Cyclopropylsulfonyl)-1H-pyrazol-4-yl)pyrimidin-4-yl)amino)-4′-(((1s,4s)-4-hydroxy-4-methylcyclohexyl)amino)-[2,3′-bipyridin]-4-yl)methyl) azetidin-3-ol] |  |  |  |  |  |  |  |  |  |  | 9.52 | 8.17 | 10.00 | 9.70 | 9.70 | 9.52 | 9.15 | 5.70 | 9.30 | 9.70
12 | O=S(=O)(C1CC1)n1cc(-c2nccc(Nc3cc(N[C@H]4CC[C@](O)(CO)CC4)c(-c4ccccn4)cn3)n2)cn1 [Example 37, (1s,4s)-4-((6′-((2-(1-(Cyclopropylsulfonyl)-1H-pyrazol-4-yl)pyrimidin-4-yl)amino)-[2,3′-bipyridin]-4′-yl)amino)-1-(hydroxymethyl)cyclohexan-1-ol] | 21.3 nM | 0.7 nM | 0.3 nM | 0.1 nM | 0.2 nM | 0.2 nM | > 10000 nM | 6.6 nM | 0.7 nM | 1.1 nM |  |  |  |  |  |  |  |  |  | 
